pIC50: −log10 of the molar value. The source made the active and inactive calls. No cut-off for these calls is given here.

Experiment [1] deals with Translocator protein (Rattus norvegicus) (UniProt P16257). Description: Displacement of [3H]PK11195 from TSPO receptor in Sprague-Dawley rat cerebral cortex membrane at 10 uM by radiometric competitive assay. Type of experiment: tissue-based.
Experiment [2] has the same target. As to the kind of experiment: Displacement of [3H]PK11195 from TSPO receptor in Sprague-Dawley rat cerebral cortex membrane at 1 uM by radiometric competitive assay. In kind it is tissue-based.
Experiment [3] has the same target. Description: Displacement of [3H]PK11195 from TSPO receptor in Sprague-Dawley rat cerebral cortex membrane at 100 nM by radiometric competitive assay. Type of experiment: tissue-based. In general terms: In a radioligand displacement assay an active substance lowers the binding of a labelled ligand.
For experiment [4] the target is unchanged. Description: Displacement of [3H]PK11195 from TSPO receptor in Sprague-Dawley rat cerebral cortex membrane at 10 nM by radiometric competitive assay. In kind it is tissue-based.
Experiment [5] has the same target. Description: Displacement of [3H]PK11195 from TSPO receptor in Sprague-Dawley rat cerebral cortex membrane at 1 nM by radiometric competitive assay. In kind it is tissue-based.
The nature of experiment [6]: Antiproliferative activity against human GBM1 cells assessed as reduction in cell viability at 10 uM incubated for 72 hrs by WST-1 method. Type of experiment: functional. The settings on record: GBM1, 72 h. Background: Formazan colour is commonly taken as a measure of viable cells.
Experiment [7] is described as follows: Antiproliferative activity against human GBM2 cells assessed as reduction in cell viability at 10 uM incubated for 72 hrs by WST-1 method. Type of experiment: functional. Particulars: GBM2, 72 h.
Experiment [8] is described as follows: Antiproliferative activity against human GBM1 cells assessed as reduction in cell viability incubated for 72 hrs by WST-1 method. Type of experiment: functional, cell-based. The settings on record: GBM1, 72 h.
Experiment [9] in a line: Antiproliferative activity against human GBM2 cells assessed as reduction in cell viability incubated for 72 hrs by WST-1 method. Particulars: GBM2, 72 h. Type of experiment: functional, cell-based.
Experiment [10] in a line: Cytotoxicity against normal human astrocytes assessed as cell viability incubated for 72 hrs by WST-1 method. In kind it is cell-based. Particulars: Astrocyte.
Experiment [11] can be described thus: Selectivity index, ratio of IC50 for normal human astrocytes to IC50 for human GBM1 cells.
Experiment [12] can be described thus: Selectivity index, ratio of IC50 for normal human astrocytes to IC50 for human GBM2 cells.
Experiment [13] in a line: Antiproliferative activity against human GBM3 cells assessed as reduction in cell viability at 10 uM incubated for 72 hrs by WST-1 method. Type of experiment: functional. Particulars: GBM3, 72 h.
A short description of experiment [14]: Antiproliferative activity against human GBM3 cells assessed as reduction in cell viability incubated for 72 hrs by WST-1 method. Type of experiment: functional, cell-based. Particulars: GBM3, 72 h.
Experiment [15] can be described thus: Selectivity index, ratio of IC50 for normal human astrocytes to IC50 for human GBM3 cells.
For another experiment, the system named is GBM1. As to the kind of experiment: Induction of apoptosis in human GBM1 cells assessed as loss of mitochondrial membrane potential at 10 uM after 2 hrs by JC-1 staining based fluorescence microscopy. In kind it is functional, cell-based.
The target in another experiment is Translocator protein (Rattus norvegicus, UniProt P16257). Description: Displacement of [3H]PK11195 from TSPO receptor in Sprague-Dawley rat cerebral cortex membrane by radiometric competitive assay. In kind it is tissue-based.
Experiment [16] has as its system GBM. As to the kind of experiment: Tumoricidal effect in patient derived GBM 464T cells assessed as reduction in neurosphere formation at 20 uM after 1 to 2 weeks by 3D tumor clonogenic assay. In kind it is functional, cell-based. Particulars: Homo sapiens.
The subject of experiment [17] is GBM. Description: Tumoricidal effect in patient derived GBM 096T cells assessed as reduction in neurosphere formation at 20 uM after 1 to 2 weeks by 3D tumor clonogenic assay. Type of experiment: functional, cell-based. Particulars: Homo sapiens.
Experiment [18] has as its system GBM. Description: Tumoricidal effect in patient derived GBM 025T cells assessed as reduction in neurosphere formation at 20 uM after 1 to 2 weeks by 3D tumor clonogenic assay. In kind it is functional, cell-based. Particulars: Homo sapiens.
Experiment [19] concerns GBM. As to the kind of experiment: Tumoricidal effect in patient derived GBM 448T cells assessed as reduction in neurosphere formation at 20 uM after 1 to 2 weeks by 3D tumor clonogenic assay. Particulars: Homo sapiens. In kind it is functional, cell-based.
The test system of experiment [20] is GBM. Description: Tumoricidal effect in patient derived GBM 047T cells assessed as reduction in neurosphere formation at 20 uM after 1 to 2 weeks by 3D tumor clonogenic assay. Type of experiment: functional, cell-based. The settings on record: Homo sapiens.
Experiment [21] deals with Translocator protein (Rattus norvegicus) (UniProt P16257). The settings on record: Sprague-Dawley, Cerebral cortex, Membrane, 0.1 nM.

Usually inhibition stands for the relative decrease from the control value, in per cent. Regarding `CN1C(=O)CN=C(c2ccccc2)c2cc(Cl)ccc21`, the inhibition in experiment [1] turned out to be 97%; in experiment [2] it was 85%; in experiment [3] it was 34%; in experiment [4], 2%; in experiment [5], 0%.
What is called pIC50 is the IC50 on a negative log10 scale, so that one unit is a factor of ten. Consider `O=C(Nc1cc2ncncc2cc1OCc1cccc(F)c1)Nc1cccc2ccccc12`, for which the inhibition at 10 µM in [6] is 92.6%; in [7], 94.9%; in experiment [13], 92.9%. The negative-log IC50 (pIC50) in experiment [8] was 5.89; in [9], 5.85; in experiment [10], less than 5.00; in experiment [14], 5.92; on Translocator protein, 6.15. Moreover, the “Ratio IC50” value in experiment [11], in [12] and in [15] was more than 7.7 each time. Moreover, in the experiment with GBM1, the outcome was Active. Moreover, the inhibition in [1] turned out to be 75%; in [2], 53%; in [3] it was 34%; in experiment [4] it was 9%; in experiment [5] it was 3%.
For the molecule `O=C(Nc1ccc(Cl)c(Cl)c1)Nc1cc2ncncc2cc1OCc1cccc(F)c1`, the inhibition at 10 µM in experiment [6] worked out at 98.6%; in experiment [7], 99.1%; in experiment [13], 104%. The pIC50 in experiment [8] is 5.68; in [9], 5.82; in [10] it was 5.13; in experiment [14], 5.70; on Translocator protein it was 5.88. For the same molecule, the “Ratio IC50” value in experiment [11], in [12] and in [15] was 4 in each case. The result in the experiment with GBM1 was Active. The inhibition was determined as 86% in experiment [1]; 42% in experiment [2]; 16% in experiment [3]; 8% in experiment [4]; 3% in experiment [5].
Consider `Cn1nnc2c(C(N)=O)ncn2c1=O`, for which the result in the experiment with GBM [16] and in the experiment with GBM [20] was Active. The result with GBM [17], with GBM [18] and with GBM [19] was inactive.
`CCC(C)N(C)C(=O)c1cc2ccccc2c(-c2ccccc2Cl)n1` (centres undefined): the inhibition worked out at 100% in [2]; 90% in [3]; 45% in experiment [4]; 7% in [5]; 0% in experiment [21].
`O=C(Nc1cccc(Cl)c1)Nc1cc2ncncc2cc1OCc1ccccc1Cl`: the inhibition at 10 µM stood at 78.5% in experiment [6], 97.2% in experiment [7] and 103% in [13]. Moreover, the pIC50 in [8] was 5.59; in experiment [9] it was 5.68; in experiment [10], less than 5.00; in [14], 5.55; on Translocator protein it was 5.55. Further, the “Ratio IC50” value in [11], in experiment [12] and in [15] was more than 4 each time. Moreover, in the experiment with GBM1, the outcome was Active. Besides, the inhibition in experiment [1] amounted to 80%; in experiment [2], 23%; in experiment [3], 14%; in experiment [4] it was 6%; in [5], 2%.
For `O=C(Nc1ccc(Cl)c(Cl)c1)Nc1cc2ncncc2cc1OCc1ccccc1Cl`, the inhibition at 10 µM in [6] amounted to 87.5%; in [7], 98.9%; in experiment [13] it was 104%. Further, the pIC50 is 5.74 in experiment [8]; 5.89 in [9]; less than 5.00 in experiment [10]; 5.92 in [14]; 6.35 on Translocator protein. Further, the “Ratio IC50” value in [11], in experiment [12] and in [15] was more than 7 each time. Besides, the result with GBM1 was Active. Besides, the inhibition was 84% in experiment [1]; 57% in experiment [2]; 37% in experiment [3]; 19% in experiment [4]; 1% in [5].
For the molecule `O=C(Nc1cc2ncncc2cc1OCc1ccccc1Cl)Nc1cccc2ccccc12`, the inhibition at 10 µM in experiment [6] came to 97.3%; in [7], 98.1%; in [13], 100%. Moreover, the pIC50 in experiment [8] is 5.54; in experiment [9] it was 5.54; in experiment [10], 5.64; in experiment [14], 5.57. Further, the “Ratio IC50” value in experiment [11], in experiment [12] and in [15] was 1 in each case.
With `O=C(Nc1ccc(C(F)(F)F)cc1)Nc1cc2ncncc2cc1OCc1ccccc1`, the values for the inhibition at 10 µM in experiment [6], in experiment [7] and in experiment [13] were 92.2%, 95.2% and 99.1%, respectively. For the same molecule, the pIC50 in [8] is 5.24; in experiment [9] it was 5.07; in experiment [10] it was 5.04; in experiment [14], 5.43. In addition, the “Ratio IC50” value in experiment [11], in experiment [12] and in experiment [15] was 1.5 in each case.
Take `O=C(Nc1cc2ncncc2cc1OCc1ccc(F)cc1)Nc1cccc2ccccc12`: the results for the inhibition at 10 µM in experiment [6], in experiment [7] and in experiment [13] were 99.3%, 99% and 94.4%, respectively. Further, the pIC50 in experiment [8] is 5.09; in [9], 5.35; in experiment [10] it was 5.07; in experiment [14], 5.08. For the same molecule, the “Ratio IC50” value in experiment [11], in experiment [12] and in [15] was 1.2 in each case.
Consider `O=C(Nc1ccccc1F)Nc1cc2ncncc2cc1OCc1ccccc1`, for which the inhibition at 10 µM in experiment [6] is 72%; in experiment [7] it was 83.7%; in experiment [13], 75.5%. Also, the pIC50 in experiment [8] is 5.21; in experiment [9], 5.35; in [10] it was less than 5.00; in experiment [14], 5.23. Also, the “Ratio IC50” value in [11], in experiment [12] and in experiment [15] was more than 1.8 throughout.
As for `N#CC(C#N)=NNc1cccc(Cl)c1`, the result in the experiment on GBM1 was Active.

The values above are taken from ChEMBL document CHEMBL3632488, “Discovery of potent and selective cytotoxic activity of new quinazoline-ureas against TMZ-resistant glioblastoma multiforme (GBM)” (Eur J Med Chem, 2015).
